Data taken from BigSolDB 2.1.

Cc1c(Cl)cccc1Nc1ccccc1C(=O)O
solubility (mole fraction)
Details | 283.15 K | 288.15 K | 293.15 K | 298.15 K | 303.15 K | 308.15 K | 313.15 K | 318.15 K | 323.15 K | 328.15 K
in 1,4-dioxane | – | 0.0289 | 0.032 | 0.0356 | 0.0399 | 0.0444 | 0.0492 | 0.0548 | 0.0599 | 0.0654
in DMF | 0.00652 | 0.00892 | 0.0117 | 0.0152 | 0.019 | 0.0241 | 0.0303 | 0.0374 | 0.0454 | 0.055
in DMSO | – | – | 0.0144 | 0.0186 | 0.0229 | 0.0288 | 0.0351 | 0.042 | 0.0495 | 0.0571
in acetonitrile | 0.000228 | 0.000339 | 0.000463 | 0.000618 | 0.000808 | 0.00107 | 0.00137 | 0.00177 | 0.00221 | 0.00282
in cyclohexane | 2.97e-05 | 4.31e-05 | 5.94e-05 | 8.23e-05 | 0.000116 | 0.000159 | 0.000216 | 0.000292 | 0.000391 | 0.000515
in ethyl acetate | 0.00603 | 0.00799 | 0.0102 | 0.0127 | 0.0162 | 0.0201 | 0.0252 | 0.0314 | 0.0383 | 0.0458
in ethyl formate | 0.00169 | 0.00239 | 0.00311 | 0.00405 | 0.00506 | 0.0066 | 0.00833 | 0.01 | 0.0131 | 0.0159
in ethylene glycol | 8.74e-05 | 0.000132 | 0.000177 | 0.000233 | 0.000311 | 0.000406 | 0.000546 | 0.000717 | 0.000931 | 0.00122
in n-heptanol | 0.00557 | 0.00726 | 0.00924 | 0.0114 | 0.0142 | 0.0171 | 0.0214 | 0.0257 | 0.0306 | 0.0366
in n-hexanol | 0.00435 | 0.00581 | 0.00758 | 0.0094 | 0.0118 | 0.0144 | 0.0176 | 0.021 | 0.0251 | 0.0295
in n-pentanol | 0.00335 | 0.00432 | 0.00575 | 0.00741 | 0.00916 | 0.0112 | 0.0138 | 0.0169 | 0.0206 | 0.0243
in n-pentyl acetate | 0.00558 | 0.00726 | 0.00931 | 0.0116 | 0.0146 | 0.0179 | 0.0218 | 0.0261 | 0.031 | 0.0371
